pIC50: −log10 of the molar value.
How the values were obtained:
CYP2C9 = target: T1, CYP2C9 (Homo sapiens, UniProt P11712); experiment: Inhibitory effect on CYP coenzyme activity, human liver microsomes; assay type: in vitro ADME; conditions: 10 μM compound, human liver microsomes 0.25 mg/mL, substrate diclofenac, 15 minutes
T1 construct: human liver microsomes (0.25 mg/mL); from tissue; host or cells: human liver microsomes
Description: (§1) The inhibitory effects of the compounds prepared according to Examples 1 to 57 on CYP coenzyme activity were identified. Specifically, human liver microsomes (0.25 mg/mL), a 0.1 M phosphate buffer solution (pH 7.4), a substrate drug cocktail of five types of drug metabolism enzymes (50 μM phenacetin, 10 μM diclofenac, 100 μM S-mephenytoin, 5 μM dextromethorphan, and 2.5 μM midazolam), and the compound at a concentration of 0 μM or 10 μM were mixed and pre-cultured at 37° C. for 5 minutes, and then further cultured at 37° C. for 15 minutes together with an NADPH generation system solution added thereto. Thereafter, the reaction was terminated by adding an acetonitrile solution containing an internal standard material (terfenadine) and centrifuged for 5 minutes (14,000 rpm, 4° C.), and then a supernatant was injected into an LC-MS/MS system for simultaneous analysis of metabolites of the substrate drugs to thereby evaluate the inhibitory effects on drug metabolism.
(§2) Metabolites of each CYP coenzyme indicator drug generated through the reaction were analyzed using the Shimadzu Nexera XR system and TSQ Vantage (Thermo). In an HPLC column, Kinetex C18 (2.1 mm×100 mm, 2.6 μm, particle size; Phenomenex, USA) was used, and mobile phases were (A) distilled water containing 0.1% formic acid and (B) acetonitrile containing 0.1% formic acid, and a gradient program shown in Table 3 was applied thereto.
(§3) The generated metabolites were quantified using a multiple reaction monitoring (MRM) quantification mode, and Xcalibur (version 1.6.1) was used for data analysis. In order to express inhibitory effects of the novel compound prepared according to the examples of the present invention on CYP coenzyme activity, CYP coenzyme activities (%) with respect to the control group not treated with the compound are shown in Table 4 below.

CYP2D6 = target: T2, CYP2D6 (Homo sapiens, UniProt P10635); experiment: as above; assay type: in vitro ADME; conditions: 10 μM compound, human liver microsomes 0.25 mg/mL, substrate dextromethorphan, 15 minutes
T2 construct: human liver microsomes (0.25 mg/mL); from tissue; host or cells: human liver microsomes
T2 sequence (P10635 whole entry): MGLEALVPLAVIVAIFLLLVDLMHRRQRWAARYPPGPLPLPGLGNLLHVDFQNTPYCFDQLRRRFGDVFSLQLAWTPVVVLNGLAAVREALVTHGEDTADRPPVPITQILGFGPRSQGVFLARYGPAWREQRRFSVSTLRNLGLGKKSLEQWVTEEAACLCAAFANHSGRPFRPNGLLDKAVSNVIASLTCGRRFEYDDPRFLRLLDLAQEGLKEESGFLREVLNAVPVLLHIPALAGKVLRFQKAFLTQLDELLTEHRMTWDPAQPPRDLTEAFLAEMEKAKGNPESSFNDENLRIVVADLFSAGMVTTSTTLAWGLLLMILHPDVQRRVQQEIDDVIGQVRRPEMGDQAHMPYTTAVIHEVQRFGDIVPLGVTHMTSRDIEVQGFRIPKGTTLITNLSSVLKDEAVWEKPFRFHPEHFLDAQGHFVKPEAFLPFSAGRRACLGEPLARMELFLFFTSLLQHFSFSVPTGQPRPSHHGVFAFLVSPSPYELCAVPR
Description: as §1, §2, §3

CYP2C19 = target: T3, CYP2C19 (Homo sapiens, UniProt P33261); experiment: as above; assay type: in vitro ADME; conditions: 10 μM compound, human liver microsomes 0.25 mg/mL, substrate S-mephenytoin, 15 minutes
T3 construct: human liver microsomes (0.25 mg/mL); from tissue; host or cells: human liver microsomes
T3 sequence (P33261 whole entry): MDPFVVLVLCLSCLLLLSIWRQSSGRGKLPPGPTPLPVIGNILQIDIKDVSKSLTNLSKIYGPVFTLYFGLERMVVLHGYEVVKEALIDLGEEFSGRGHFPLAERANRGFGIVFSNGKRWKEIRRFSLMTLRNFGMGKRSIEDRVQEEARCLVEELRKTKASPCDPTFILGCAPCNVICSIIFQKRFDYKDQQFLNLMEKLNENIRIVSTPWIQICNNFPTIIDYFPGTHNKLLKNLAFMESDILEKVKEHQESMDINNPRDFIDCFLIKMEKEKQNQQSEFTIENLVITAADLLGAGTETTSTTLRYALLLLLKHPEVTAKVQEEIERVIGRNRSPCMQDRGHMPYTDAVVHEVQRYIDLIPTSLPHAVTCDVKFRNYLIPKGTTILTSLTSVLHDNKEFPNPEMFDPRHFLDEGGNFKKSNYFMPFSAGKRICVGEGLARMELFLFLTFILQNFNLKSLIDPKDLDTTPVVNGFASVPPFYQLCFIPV
Description: as §1, §2, §3

CYP3A4 = target: T4, CYP3A4 (Homo sapiens, UniProt P08684); experiment: as above; assay type: in vitro ADME; conditions: 10 μM compound, human liver microsomes 0.25 mg/mL, substrate midazolam, 15 minutes
T4 construct: human liver microsomes (0.25 mg/mL); from tissue; host or cells: human liver microsomes
T4 sequence (P08684 whole entry): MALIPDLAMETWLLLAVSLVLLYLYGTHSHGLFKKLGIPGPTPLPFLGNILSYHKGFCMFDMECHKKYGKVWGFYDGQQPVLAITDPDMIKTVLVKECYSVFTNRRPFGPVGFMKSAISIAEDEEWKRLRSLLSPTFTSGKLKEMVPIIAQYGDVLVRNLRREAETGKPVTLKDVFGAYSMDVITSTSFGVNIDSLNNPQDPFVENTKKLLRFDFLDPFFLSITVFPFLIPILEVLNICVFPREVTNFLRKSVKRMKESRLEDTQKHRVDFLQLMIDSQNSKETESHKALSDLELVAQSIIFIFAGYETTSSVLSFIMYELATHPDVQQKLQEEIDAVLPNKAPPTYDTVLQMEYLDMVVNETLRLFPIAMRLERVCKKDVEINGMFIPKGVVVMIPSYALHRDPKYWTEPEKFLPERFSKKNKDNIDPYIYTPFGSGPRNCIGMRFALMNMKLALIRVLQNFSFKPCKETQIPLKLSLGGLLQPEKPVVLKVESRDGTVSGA
Description: as §1, §2, §3

CYP1A2 = target: T5, CYP1A2 (Homo sapiens, UniProt P05177); experiment: as above; assay type: in vitro ADME; conditions: 10 μM compound, human liver microsomes 0.25 mg/mL, substrate phenacetin, 15 minutes
T5 construct: human liver microsomes (0.25 mg/mL); from tissue; host or cells: human liver microsomes
T5 sequence (P05177 1-516): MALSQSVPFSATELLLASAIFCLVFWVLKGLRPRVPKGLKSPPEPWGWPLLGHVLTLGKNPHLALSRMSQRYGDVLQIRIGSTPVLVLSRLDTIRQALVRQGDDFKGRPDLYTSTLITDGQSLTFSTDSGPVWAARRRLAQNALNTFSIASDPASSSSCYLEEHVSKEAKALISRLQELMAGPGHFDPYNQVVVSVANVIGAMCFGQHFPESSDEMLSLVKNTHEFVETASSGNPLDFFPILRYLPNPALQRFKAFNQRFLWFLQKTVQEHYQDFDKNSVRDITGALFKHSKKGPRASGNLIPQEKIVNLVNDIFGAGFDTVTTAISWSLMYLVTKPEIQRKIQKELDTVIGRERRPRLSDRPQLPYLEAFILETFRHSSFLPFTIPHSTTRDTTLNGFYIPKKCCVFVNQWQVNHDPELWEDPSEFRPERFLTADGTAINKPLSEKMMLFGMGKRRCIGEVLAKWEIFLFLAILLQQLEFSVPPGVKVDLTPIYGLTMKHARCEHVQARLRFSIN
Description: as §1, §2, §3

tau protein = target: T6, tau protein (Homo sapiens, UniProt P10636); experiment: Tau-BiFC cell model, inhibition of Forskolin-induced tau protein aggregation; assay type: cell-based; conditions: Forskolin 30 μM, 48 hours; for Tau BiFC in cells Response (% @10 μM): 10 μM compound, Forskolin-only group = 100% tau protein-aggregated state; for pIC50: tau-BiFC cells
T6 construct: BiFC fluorescent-protein fragments (type and halves not specified); expressed in transfected cells
T6 sequence (P10636 1-441 isoform P10636-8): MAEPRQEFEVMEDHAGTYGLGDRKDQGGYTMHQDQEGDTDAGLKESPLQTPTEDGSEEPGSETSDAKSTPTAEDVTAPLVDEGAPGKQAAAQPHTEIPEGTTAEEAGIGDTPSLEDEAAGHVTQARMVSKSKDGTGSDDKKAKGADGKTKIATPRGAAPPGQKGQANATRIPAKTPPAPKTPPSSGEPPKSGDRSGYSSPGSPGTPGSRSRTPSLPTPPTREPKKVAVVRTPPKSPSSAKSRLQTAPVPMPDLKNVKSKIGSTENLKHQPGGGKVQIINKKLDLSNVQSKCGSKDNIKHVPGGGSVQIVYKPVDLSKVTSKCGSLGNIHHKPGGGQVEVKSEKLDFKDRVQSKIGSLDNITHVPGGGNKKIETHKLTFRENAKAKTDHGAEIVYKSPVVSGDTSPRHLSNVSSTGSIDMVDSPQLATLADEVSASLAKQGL
Procedure, shortened: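 Tau-BiFC cells co-treated 48 h with 30 μM forskolin and compounds (1, 3, 10 μM screen; 0.01–30 μM dose-response). BiFC fluorescence normalized to forskolin-only (100% aggregation) minus untreated gives aggregation inhibition and IC50; viability as Hoechst-stained nuclei count relative to forskolin-only.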

T1 sequence (P11712 whole entry): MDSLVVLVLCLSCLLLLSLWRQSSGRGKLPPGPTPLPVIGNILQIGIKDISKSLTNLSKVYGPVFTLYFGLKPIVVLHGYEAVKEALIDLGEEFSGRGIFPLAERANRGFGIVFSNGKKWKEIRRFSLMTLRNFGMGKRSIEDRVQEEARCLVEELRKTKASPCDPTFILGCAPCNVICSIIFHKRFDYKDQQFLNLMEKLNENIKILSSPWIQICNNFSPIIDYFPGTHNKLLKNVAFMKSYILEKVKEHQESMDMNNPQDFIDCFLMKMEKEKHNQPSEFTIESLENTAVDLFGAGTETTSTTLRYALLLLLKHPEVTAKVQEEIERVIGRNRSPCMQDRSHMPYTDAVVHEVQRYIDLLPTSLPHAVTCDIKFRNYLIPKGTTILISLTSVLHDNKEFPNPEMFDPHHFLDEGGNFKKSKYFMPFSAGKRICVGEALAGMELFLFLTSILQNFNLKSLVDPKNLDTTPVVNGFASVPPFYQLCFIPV

| Compound | CYP2C9 coenzyme activity (%) with respect to control group not treated (CYP2C9) | CYP2D6 coenzyme activity (%) with respect to control group not treated (CYP2D6) | CYP2C19 coenzyme activity (%) with respect to control group not treated (CYP2C19) | CYP3A4 coenzyme activity (%) with respect to control group not treated (CYP3A4) | CYP1A2 coenzyme activity (%) with respect to control group not treated (CYP1A2) | Tau BiFC in cells Response (% @10 μM) (tau protein) | pIC50 (tau protein) |
| --- | --- | --- | --- | --- | --- | --- | --- |
| CC(C)n1ccc2ccc(NN=C(C#N)C#N)cc2c1=O [Compound 3, (2-isopropyl-1-oxo-1,2-dihydroisoquinolin-7-yl)carbonohydrazonoyl dicyanide] | 78.5% | >100% | 98.2% | >100% | 50.2% | 0% | 6.70 |
| Cn1c(=O)n(C)c2cc(NN=C(C#N)C#N)ccc21 [Compound 22, (1,3-dimethyl-2-oxo-2,3-dihydro-1H-benzo[d]imidazol-5-yl)carbonohydrazonoyl dicyanide] | 99% | >100% | >100% | >100% | 93.5% | 0% | 6.70 |
| Cn1ccc2ccc(NN=C(C#N)C#N)cc2c1=O [Compound 2, (2-methyl-1-oxo-1,2-dihydroisoquinolin-7-yl)carbonohydrazonoyl dicyanide] | 77.9% | 94.3% | 79.2% | 89% | 43.5% | 0% | – |
| Cn1c(=O)oc2cc(NN=C(C#N)C#N)ccc21 [Compound 16, (3-methyl-2-oxo-2,3-dihydrobenzo[d]oxazol-6-yl)carbonohydrazonoyl dicyanide] | 54.9% | >100% | 90.8% | 99.8% | 91.5% | 0% | 6.22 |
| N#CC(C#N)=NNc1ccc2[nH]c(=O)oc2c1 [Compound 15, (2-oxo-2,3-dihydrobenzo[d]oxazol-6-yl)carbonohydrazonoyl dicyanide] | 59.4% | >100% | 90.3% | 98.3% | 87.3% | 5.5% | 5.08 |
| CCn1c(=O)n(C)c2ccc(NN=C(C#N)C#N)cc21 [Compound 35, (3-ethyl-1-methyl-2-oxo-2,3-dihydro-1H-benzo[d]imidazol-5-yl)carbonohydrazonoyl dicyanide] | 72.5% | >100% | 100% | >100% | 93.1% | −44% | 8.00 |
| CC(C)n1c(=O)n(C(C)C)c2cc(NN=C(C#N)C#N)ccc21 [Compound 23, (1,3-diisopropyl-2-oxo-2,3-dihydro-1H-benzo[d]imidazol-5-yl)carbonohydrazonoyl dicyanide] | 46.4% | 95.3% | 69.7% | 79.6% | 83.2% | 0% | 7.00 |
| CCn1c(=O)n(C)c2cc(NN=C(C#N)C#N)ccc21 [Compound 38, (1-ethyl-3-methyl-2-oxo-2,3-dihydro-1H-benzo[d]imidazol-5-yl)carbonohydrazonoyl dicyanide] | 92.6% | >100% | >100% | >100% | 98.9% | −31% | 7.52 |
| Cn1c(=O)n(C)c2cc(NN=C(C#N)C#N)c(Cl)cc21 [Compound 10, (6-chloro-1,3-dimethyl-2-oxo-2,3-dihydro-1H-benzo[d]imidazol-5-yl)carbonohydrazonoyl dicyanide] | >100% | >100% | 94.6% | >100% | 94.2% | 0% | 6.52 |
| Cc1cc2c(NN=C(C#N)C#N)cccc2c(=O)n1C [Compound 7, (2,3-dimethyl-1-oxo-1,2-dihydroisoquinolin-5-yl)carbonohydrazonoyl dicyanide] | 29.8% | 86.2% | 65.1% | 72% | 33.2% | 0% | 6.70 |
| COc1cc(NN=C(C#N)C#N)cc2c1n(C)c(=O)n2C [Compound 33, (7-methoxy-1,3-dimethyl-2-oxo-2,3-dihydro-1H-benzo[d]imidazol-5-yl)carbonohydrazonoyl dicyanide] | 69.9% | >100% | >100% | 97.6% | 37.8% | −43% | 8.30 |
| CCn1c(=O)n(C)c2cc(NN=C(C#N)C#N)cnc21 [Compound 48, (3-ethyl-1-methyl-2-oxo-2,3-dihydro-1H-imidazo[4,5-b]pyridin-6-yl)carbonohydrazonoyl dicyanide] | >100% | >100% | >100% | >100% | >100% | −18% | 7.22 |
| CC(C)n1c(=O)oc2ccc(NN=C(C#N)C#N)cc21 [Compound 29, (3-isopropyl-2-oxo-2,3-dihydrobenzo[d]oxazol-5-yl)carbonohydrazonoyl dicyanide] | 4.7% | 94.2% | 91.3% | >100% | 97.3% | −31% | 7.15 |
